Patent publication EP1561465A2, “Methods of use of fluoroquinolone compounds against bacteria” (LG Life Sciences, Ltd., priority 1999, dated 2001)
Values after ≈ are worked out from the molar mass of the structure shown. Where two headings read alike, the source gives them in different places.

Tests used:
Assay type in all cases: cell-based
Salmonella spp. = test: MIC by agar dilution (NCCLS M7-A4), 288 enteropathogenic isolates, gemifloxacin and 15 other antimicrobials
Streptococcus pneumoniae = test: MIC by agar dilution (NCCLS), 411 isolates Buenos Aires 1998-99; conditions: for MIC / MIC90: Streptococcus pneumoniae; for MIC: Ciprofloxacin-resistant S. pneumoniae, read-out: MIC; for MIC90: read-out: MIC90
Moraxella catarrhalis = test: as above
Hafnia alvei = test: MIC by agar dilution (NCCLS M7-A4), 288 enteropathogenic isolates, gemifloxacin and 15 other antimicrobials; conditions: Hafnia alvei N= 32
Yersinia enterocolitica = test: as above; conditions: Yersinia enterocolitica N= 22
Proteus mirabilis = test: MIC by agar dilution (NCCLS), 322 nosocomial Gram negative isolates, Athens 1998; conditions: Proteus mirabilis; n = 57 isolates
Klebsiella pneumoniae = test: as above; conditions: n = 56 isolates
Aeromonas spp. = test: MIC by agar dilution (NCCLS M7-A4), 288 enteropathogenic isolates, gemifloxacin and 15 other antimicrobials; conditions: Aeromonas spp. N= 16
Escherichia coli = test: MIC by agar dilution (NCCLS), 322 nosocomial Gram negative isolates, Athens 1998; conditions: Escherichia coli; n = 57 isolates
[1] = Streptococcus pneumoniae (n = 90)
[2] = 24 h, read-out: MIC (mg/L) Range

Structure (SMILES): CC1COc2c(N3CCN(C)CC3)c(F)cc3c(=O)c(C(=O)O)cn1c23 (stereo not drawn) [Ofloxacin, ofloxacin]
- MIC (Salmonella spp.; S. hadar(2), isolates with MICs for ciprofloxacin ≥[…], read-out: MIC): 2 mg/L (≈ 5.53 µM)
- MIC (Salmonella spp.; S. newport(1), isolate with MIC for ciprofloxacin ≥[…], read-out: MIC): 2 mg/L (≈ 5.53 µM)
- MIC (mg/L) Range (Salmonella spp.; Salmonella spp. N= 106): 0.06 to 2 mg/L
- MIC (Salmonella spp.; Salmonella, S. tshiongwe(1), isolate with MIC for ciprofloxacin ≥[…], read-out: MIC): 2 mg/L (≈ 5.53 µM)
- MIC (Salmonella spp.; Salmonella, read-out: MIC (mg/L) 50%, Salmonella spp. N= 106): 0.12 mg/L (≈ 0.332 µM)
- MIC (Salmonella spp.; Salmonella, read-out: MIC (mg/L) 90%, Salmonella spp. N= 106): 0.5 mg/L (≈ 1.38 µM)
- MIC Range (Streptococcus pneumoniae; [1]): 1 to 16 µg/mL
- MIC (Streptococcus pneumoniae; Strain 1): 2 µg/mL (≈ 5.53 µM)
- MIC (Streptococcus pneumoniae; Strain 2): 2 µg/mL (≈ 5.53 µM)
- MIC (Streptococcus pneumoniae; Strain 3): 16 µg/mL (≈ 44.3 µM)
- MIC (Streptococcus pneumoniae; Strain 4): 8 µg/mL (≈ 22.1 µM)
- MIC90 (Streptococcus pneumoniae; S. pneumoniae, Penicillin intermediate (n = 17)): 2 µg/mL (≈ 5.53 µM)
- MIC90 (Streptococcus pneumoniae; S. pneumoniae, Penicillin resistant (n = 4)): 1 µg/mL (≈ 2.77 µM)
- MIC90 (Streptococcus pneumoniae; S. pneumoniae, Penicillin susceptible (n = 69)): 2 µg/mL (≈ 5.53 µM)
- MIC90 (Streptococcus pneumoniae; [1]): 2 µg/mL (≈ 5.53 µM)
- MIC90 (Moraxella catarrhalis; Moraxella catarrhalis): 0.125 µg/mL (≈ 0.346 µM)
- MIC Range (Moraxella catarrhalis; Moraxella catarrhalis (n = 59)): 0.06 to 0.125 µg/mL
- MIC (Hafnia alvei; [2]): 0.03 mg/L (≈ 0.083 µM)
- MIC (Hafnia alvei; read-out: MIC (mg/L) 50%): 0.03 mg/L (≈ 0.083 µM)
- MIC (Hafnia alvei; read-out: MIC (mg/L) 90%): 0.03 mg/L (≈ 0.083 µM)
- MIC (Yersinia enterocolitica; [2]): 0.03 to 0.5 mg/L (≈ 0.083 to 1.38 µM)
- MIC (Yersinia enterocolitica; read-out: MIC (mg/L) 50%): 0.12 mg/L (≈ 0.332 µM)
- MIC (Yersinia enterocolitica; read-out: MIC (mg/L) 90%): 0.12 mg/L (≈ 0.332 µM)
- MIC50 (Proteus mirabilis): 0.25 µg/mL (≈ 0.692 µM)
- MIC90 (Proteus mirabilis): 32 µg/mL (≈ 88.6 µM)
- MIC50 (Klebsiella pneumoniae; Klebsiella pneumoniae): 0.125 µg/mL (≈ 0.346 µM)
- MIC90 (Klebsiella pneumoniae; Klebsiella pneumoniae): 1 µg/mL (≈ 2.77 µM)
- MIC Range (Klebsiella pneumoniae): 0.06 to 32 µg/mL
- MIC (mg/L) Range (Aeromonas spp.): ≤0.015 to 0.12 mg/L
- MIC (Aeromonas spp.; read-out: MIC (mg/L) 50%): ≤ 0.015 mg/L
- MIC (Aeromonas spp.; read-out: MIC (mg/L) 90%): 0.03 mg/L (≈ 0.083 µM)
- MIC50 (Escherichia coli): 0.06 µg/mL (≈ 0.166 µM)
- MIC90 (Escherichia coli): 0.25 µg/mL (≈ 0.692 µM)
